{
  "source": "patent US20020137929A1",
  "about": "“1 - (3-heterocyclylphenyl) isothiourea, -isourea, -guanidine and -amidine herbicidal agents” (Intellectual Property Department, BASF Aktiengesellschaft, priority 1998, published 2002)",
  "key": {"[1]": {"tested_on": "TRZAWR (Wheat, Winter, cv Riband)", "test": "Postemergence herbicidal evaluation", "assay_type": "in vivo, Triticum aestivum", "method_in_brief": "(§1)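 Visual 0–9 rating versus control (stand, vigor, malformation, size, chlorosis, overall appearance), taken four to five weeks post-spray. Two-week-old seedlings received roughly 0.0156–0.500 kg/ha active in acetone/water (50/50) with 0.5% TWEEN 20 via nozzle at 40 psi.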"}, "CASOB (Sicklepod)": {"tested_on": "CASOB (Sicklepod)", "test": "Preemergence herbicidal evaluation", "assay_type": "in vivo, Cassia obtusifolia", "details": "rated 4-5 weeks after treatment", "method_in_brief": "(§2)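 Herbicidal effect scored visually, 0-9, at 4 to 5 weeks against a control; compound applied preemergence by aqueous acetone spray to seeded soil at about 0.0156 to 0.500 kg/ha.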"}, "SETVI (Foxtail, Green)": {"tested_on": "SETVI (Foxtail, Green)", "test": "Postemergence herbicidal evaluation", "assay_type": "in vivo, Setaria viridis", "method_in_brief": "as §1"}, "ECHCG (Barnyardgrass) [2]": {"tested_on": "ECHCG (Barnyardgrass)", "test": "Preemergence herbicidal evaluation", "assay_type": "in vivo, Echinochloa crus-galli", "details": "rated 4-5 weeks after treatment", "method_in_brief": "as §2"}, "AMBEL (Ragweed, Common)": {"tested_on": "AMBEL (Ragweed, Common)", "test": "Postemergence herbicidal evaluation", "assay_type": "in vivo, Ambrosia artemisifolia", "method_in_brief": "as §1"}, "GALAP (Galium)": {"tested_on": "GALAP (Galium)", "test": "Preemergence herbicidal evaluation", "assay_type": "in vivo, Galium aparine", "details": "rated 4-5 weeks after treatment", "method_in_brief": "as §2"}, "[3]": {"tested_on": "IPOHE (Morningglory, Ivyleaf)", "test": "Preemergence herbicidal evaluation", "assay_type": "in vivo, Ipomoea hederacea", "details": "rated 4-5 weeks after treatment", "method_in_brief": "as §2"}, "[4]": {"tested_on": "ECHORC (Watergrass (Calif.))", "test": "Postemergence weed control under flooded paddy conditions", "assay_type": "in vivo, Echinochloa oryzoides", "details": "postemergence weeds", "method_in_brief": "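Herbicidal effect is judged by eye on a 0–9 scale versus control, 3–4 weeks after dosing. Dosing is into flood water kept 1.5–3 cm over the soil, at about 0.0313–0.500 kg/ha in aqueous/acetone 50/50 v/v, on 3–5 cm weeds and 1.5–2.5-leaf rice seedlings.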"}, "ABUTH (Velvetleaf)": {"tested_on": "ABUTH (Velvetleaf)", "test": "Postemergence herbicidal evaluation", "assay_type": "in vivo, Abutilon theophrasti", "method_in_brief": "as §1"}, "[5]": {"tested_on": "GLXMAW (Soybean, Williams)", "test": "Postemergence herbicidal evaluation", "assay_type": "in vivo, Glycine max, (L.) Merr. cv Williams", "method_in_brief": "as §1"}, "[6]": {"tested_on": "IPOHE (Morningglory, Ivyleaf)", "test": "Postemergence herbicidal evaluation", "assay_type": "in vivo, Ipomoea hederacea", "method_in_brief": "as §1"}, "[7]": {"tested_on": "CHEAL (Lambsquarters, Common)", "test": "Preemergence herbicidal evaluation", "assay_type": "in vivo, Chenopodium album", "details": "rated 4-5 weeks after treatment", "method_in_brief": "as §2"}, "ZEAMX (Corn, Field)": {"tested_on": "ZEAMX (Corn, Field)", "test": "Preemergence herbicidal evaluation", "assay_type": "in vivo, Zea mays", "details": "rated 4-5 weeks after treatment", "method_in_brief": "as §2"}, "ECHCG (Barnyardgrass) [8]": {"tested_on": "ECHCG (Barnyardgrass)", "test": "Postemergence herbicidal evaluation", "assay_type": "in vivo, Echinochloa crus-galli", "method_in_brief": "as §1"}},
  "data": [
    {"molecule": "C#CCOC(=O)CC1SC(=Nc2cc(-n3c(=O)cc(C(F)(F)F)n(C)c3=O)c(F)cc2Cl)N(CC(=O)OCC)C1=O", "note": "(centres unmarked) [Compound 59, 2-{{2-Chloro-5-[3,6-dihydro-3-methyl-2,6-dioxo-4-(trifluoromethyl)-1(2H)-pyrimidinyl]-4-fluorophenyl}imino}-4-oxo-3,5-thiazolidinediacetic acid, 3-ethyl (2-propynyl) ester]", "values": [
      {"measurement": "Postemergence herbicidal rating TRZAWR", "setting": "[1]; Rate 0.0158 kg/ha", "value": 8.0},
      {"measurement": "Postemergence herbicidal rating TRZAWR", "setting": "[1]; Rate 0.0315 kg/ha", "value": 8.0},
      {"measurement": "Postemergence herbicidal rating TRZAWR", "setting": "[1]; Rate 0.0630 kg/ha", "value": 9.0},
      {"measurement": "Preemergence herbicidal rating CASOB", "setting": "CASOB (Sicklepod); rate 0.0156 kg/ha", "value": 0.0},
      {"measurement": "Preemergence herbicidal rating CASOB", "setting": "CASOB (Sicklepod); rate 0.0313 kg/ha", "value": 0.0},
      {"measurement": "Preemergence herbicidal rating CASOB", "setting": "CASOB (Sicklepod); rate 0.0625 kg/ha", "value": 2.0},
      {"measurement": "Preemergence herbicidal rating CASOB", "setting": "CASOB (Sicklepod); rate 0.1250 kg/ha", "value": 7.0},
      {"measurement": "Preemergence herbicidal rating CASOB", "setting": "CASOB (Sicklepod); rate 0.2500 kg/ha", "value": 7.5},
      {"measurement": "Preemergence herbicidal rating CASOB", "setting": "CASOB (Sicklepod); rate 0.5000 kg/ha", "value": 9.0},
      {"measurement": "Postemergence herbicidal rating SETVI", "setting": "SETVI (Foxtail, Green); Rate 0.0158 kg/ha", "value": 9.0},
      {"measurement": "Postemergence herbicidal rating SETVI", "setting": "SETVI (Foxtail, Green); Rate 0.0315 kg/ha", "value": 9.0},
      {"measurement": "Postemergence herbicidal rating SETVI", "setting": "SETVI (Foxtail, Green); Rate 0.0630 kg/ha", "value": 9.0},
      {"measurement": "Preemergence herbicidal rating ECHCG", "setting": "ECHCG (Barnyardgrass) [2]; rate 0.0156 kg/ha", "value": 0.0},
      {"measurement": "Preemergence herbicidal rating ECHCG", "setting": "ECHCG (Barnyardgrass) [2]; rate 0.0313 kg/ha", "value": 0.0},
      {"measurement": "Preemergence herbicidal rating ECHCG", "setting": "ECHCG (Barnyardgrass) [2]; rate 0.0625 kg/ha", "value": 0.5},
      {"measurement": "Preemergence herbicidal rating ECHCG", "setting": "ECHCG (Barnyardgrass) [2]; rate 0.1250 kg/ha", "value": 2.0},
      {"measurement": "Preemergence herbicidal rating ECHCG", "setting": "ECHCG (Barnyardgrass) [2]; rate 0.2500 kg/ha", "value": 6.0},
      {"measurement": "Preemergence herbicidal rating ECHCG", "setting": "ECHCG (Barnyardgrass) [2]; rate 0.5000 kg/ha", "value": 9.0},
      {"measurement": "Postemergence herbicidal rating AMBEL", "setting": "AMBEL (Ragweed, Common); Rate 0.0158 kg/ha", "value": 9.0},
      {"measurement": "Postemergence herbicidal rating AMBEL", "setting": "AMBEL (Ragweed, Common); Rate 0.0315 kg/ha", "value": 9.0},
      {"measurement": "Postemergence herbicidal rating AMBEL", "setting": "AMBEL (Ragweed, Common); Rate 0.0630 kg/ha", "value": 9.0},
      {"measurement": "Preemergence herbicidal rating GALAP", "setting": "GALAP (Galium); rate 0.0156 kg/ha", "value": 0.0},
      {"measurement": "Preemergence herbicidal rating GALAP", "setting": "GALAP (Galium); rate 0.0313 kg/ha", "value": 0.0},
      {"measurement": "Preemergence herbicidal rating GALAP", "setting": "GALAP (Galium); rate 0.0625 kg/ha", "value": 6.0},
      {"measurement": "Preemergence herbicidal rating GALAP", "setting": "GALAP (Galium); rate 0.1250 kg/ha", "value": 7.0},
      {"measurement": "Preemergence herbicidal rating GALAP", "setting": "GALAP (Galium); rate 0.2500 kg/ha", "value": 9.0},
      {"measurement": "Preemergence herbicidal rating IPOHE", "setting": "[3]; rate 0.0156 kg/ha", "value": 1.0},
      {"measurement": "Preemergence herbicidal rating IPOHE", "setting": "[3]; rate 0.0313 kg/ha", "value": 4.0},
      {"measurement": "Preemergence herbicidal rating IPOHE", "setting": "[3]; rate 0.0625 kg/ha", "value": 8.5},
      {"measurement": "Preemergence herbicidal rating IPOHE", "setting": "[3]; rate 0.1250 kg/ha", "value": 9.0},
      {"measurement": "Preemergence herbicidal rating IPOHE", "setting": "[3]; rate 0.2500 kg/ha", "value": 9.0},
      {"measurement": "Preemergence herbicidal rating IPOHE", "setting": "[3]; rate 0.5000 kg/ha", "value": 9.0},
      {"measurement": "Herbicidal rating ECHORC", "setting": "[4]; Rate 0.0625 kg/ha, rated 3 to 4 weeks after treatment", "value": 4.0},
      {"measurement": "Herbicidal rating ECHORC", "setting": "[4]; rate 0.1250 kg/ha, 3-4 weeks after treatment", "value": 5.0},
      {"measurement": "Herbicidal rating ECHORC", "setting": "[4]; rate 0.2500 kg/ha, 3-4 weeks after treatment", "value": 7.0},
      {"measurement": "Postemergence herbicidal rating ABUTH", "setting": "ABUTH (Velvetleaf); Rate 0.0158 kg/ha", "value": 9.0},
      {"measurement": "Postemergence herbicidal rating ABUTH", "setting": "ABUTH (Velvetleaf); Rate 0.0315 kg/ha", "value": 9.0},
      {"measurement": "Postemergence herbicidal rating ABUTH", "setting": "ABUTH (Velvetleaf); Rate 0.0630 kg/ha", "value": 9.0},
      {"measurement": "Postemergence herbicidal rating GLXMAW", "setting": "[5]; Rate 0.0158 kg/ha", "value": 8.0},
      {"measurement": "Postemergence herbicidal rating GLXMAW", "setting": "[5]; Rate 0.0315 kg/ha", "value": 9.0},
      {"measurement": "Postemergence herbicidal rating GLXMAW", "setting": "[5]; Rate 0.0630 kg/ha", "value": 9.0},
      {"measurement": "Postemergence herbicidal rating IPOHE", "setting": "[6]; Rate 0.0158 kg/ha", "value": 9.0},
      {"measurement": "Postemergence herbicidal rating IPOHE", "setting": "[6]; Rate 0.0315 kg/ha", "value": 9.0},
      {"measurement": "Postemergence herbicidal rating IPOHE", "setting": "[6]; Rate 0.0630 kg/ha", "value": 9.0},
      {"measurement": "Preemergence herbicidal rating CHEAL", "setting": "[7]; rate 0.0156 kg/ha", "value": 9.0},
      {"measurement": "Preemergence herbicidal rating CHEAL", "setting": "[7]; rate 0.0313 kg/ha", "value": 9.0},
      {"measurement": "Preemergence herbicidal rating CHEAL", "setting": "[7]; rate 0.0625 kg/ha", "value": 9.0},
      {"measurement": "Preemergence herbicidal rating CHEAL", "setting": "[7]; rate 0.1250 kg/ha", "value": 9.0},
      {"measurement": "Preemergence herbicidal rating CHEAL", "setting": "[7]; rate 0.2500 kg/ha", "value": 9.0},
      {"measurement": "Preemergence herbicidal rating CHEAL", "setting": "[7]; rate 0.5000 kg/ha", "value": 9.0},
      {"measurement": "Preemergence herbicidal rating ZEAMX", "setting": "ZEAMX (Corn, Field); rate 0.0156 kg/ha", "value": 1.0},
      {"measurement": "Preemergence herbicidal rating ZEAMX", "setting": "ZEAMX (Corn, Field); rate 0.0313 kg/ha", "value": 0.5},
      {"measurement": "Preemergence herbicidal rating ZEAMX", "setting": "ZEAMX (Corn, Field); rate 0.0625 kg/ha", "value": 1.5},
      {"measurement": "Preemergence herbicidal rating ZEAMX", "setting": "ZEAMX (Corn, Field); rate 0.1250 kg/ha", "value": 3.0},
      {"measurement": "Preemergence herbicidal rating ZEAMX", "setting": "ZEAMX (Corn, Field); rate 0.2500 kg/ha", "value": 3.5},
      {"measurement": "Preemergence herbicidal rating ZEAMX", "setting": "ZEAMX (Corn, Field); rate 0.5000 kg/ha", "value": 6.0},
      {"measurement": "Postemergence herbicidal rating ECHCG", "setting": "ECHCG (Barnyardgrass) [8]; Rate 0.0158 kg/ha", "value": 9.0},
      {"measurement": "Postemergence herbicidal rating ECHCG", "setting": "ECHCG (Barnyardgrass) [8]; Rate 0.0315 kg/ha", "value": 9.0},
      {"measurement": "Postemergence herbicidal rating ECHCG", "setting": "ECHCG (Barnyardgrass) [8]; Rate 0.0630 kg/ha", "value": 9.0}
    ]}
  ]
}
